Data from patent US11484031B2, “Seed coating agent for preventing and treating wheat rot disease” (Institute of Plant Protection and Agro-products Safety, …, priority 2020, dated 2022).

Legend:
[1] = system: wheat seeds; assay: Seed soaking test: emergence rate and seedling stage of wheat seeds; format: in vivo, wheat variety "An Nong 0711"; details: seed soaking seed:drug solution=1:2, 20 minutes, after 40 days, compound sodium nitrophenolate at 0.05%, salicylic acid at 0.01%
Method: Seed initiator composition 1 with a measured content of 0.06% (compound sodium nitrophenolate 0.05%, salicylic acid 0.01%, the balance water) was diluted 10 times to form seed initiator composition 2 with a content of 0.006% (compound sodium nitrophenolate 0.005%, salicylic acid 0.001%, the balance water). The seed initiator composition 2 was treated with 0.05% compound sodium nitrophenolate, 0.01% salicylic acid and distilled water as a control. The effect on […] seed vigor was determined according to the above compositions. The experimental wheat variety was “An Nong 0711”, and the experiment was carried out in the experimental base of Anhui Academy of Agricultural Sciences. Seed soaking is carried out according to the weight ratio of seed:drug solution=1:2. After soaking for 20 minutes, sowing in the shade and drying in the shade, the seedling emergence rate, plant height, root length and fresh weight are calculated after 40 days.

[2] = system: Gaeumannomycesgraminisvar. tritici; assay: Mycelial growth assay (virulence test) of single agents and mixtures, Wadley method; format: cell-based; details: mycelial growth on medicated medium, 25° C.; ratio G:D = silothiamine:coumoxystrobin
Method: The bactericidal properties of silthiopham and coumoxystrobin are analyzed in detail. First, the EC50 ([…]) of the two single compounds of silthiostrobin and coumoxystrobin is determined. According to the EC50 of the two single drugs, the combination ratio of the two drugs is determined according to the Wadley method, and synergy coefficient SR value according to Wadley.
The test target is Gaeumannomycesgraminisvar. tritici, which causes wheat rot disease, but it is not limited to this. Silthiopham and coumoxystrobin are taken and prepared into a liquid plate about 15 ml per dish. At the edge of the pre-cultured colony, a 5 mm diameter hyphae block is prepared with a sterile puncher, and then transferred to different medium plates and cultured at 25° C. The test adopts the mycelial growth assay method, and prepares medicated medium according to different treatments. At the edge of the pre-cultured colony, a 5 mm diameter hyphae block is prepared with a sterile puncher, and then transferred to medium plates with different drug contents. […]
According to the Wadley method to evaluate the interaction of the mixture, the calculation formula is as follows: EC50(theoretical value)=(a+b)/(a/EC50a+b/EC50b), SR=EC50(theoretical value)/EC50(actual value). wherein, a and b are the content ratio of each component in the mixture, and the effect of mixing is analyzed by SR value. […]

| Structure (SMILES) | Fresh weight (10 plants, g) ([1]; 10 plants) [g] | Emergence rate [1] [%] | Plant height [1] [cm] | Root length [1] [cm] | EC50 [2] [ppm] |
| --- | --- | --- | --- | --- | --- |
| O=C(O)c1ccccc1O [Salicylic acid] | 1.28 ± 0.17 | 83.8 | 10.5 ± 1.7 | 4.8 ± 1.3 |  |
| CCCCc1c(C)c2ccc(OCc3ccccc3/C(=C\OC)C(=O)OC)cc2oc1=O [Coumoxystrobin(D), (E)-2-(2-(3-n-butyl-4methyl-coumarin-7-yloxy)methylphenyl)-3-methoxy Methyl acrylate] |  |  |  |  | 2.3127 |
| C=CCNC(=O)c1c([Si](C)(C)C)sc(C)c1C [Silothiamine(G), N-allyl-4,5-dimethyl-2-(trimethylsilyl) thiophene-3-carboxamide] |  |  |  |  | 0.6893 |
